Columns and labels:
Test in all cases: relative viability (nuclei count vs DMSO), 5 days (fraction); higher = more cells survive
[1] = compound: CC(C)(C)c1nc(-c2cccc(NS(=O)(=O)c3c(F)cccc3F)c2F)c(-c2ccnc(N)n2)s1 [Dabrafenib] + CC(=O)Nc1cccc(-n2c(=O)n(C3CC3)c(=O)c3c(Nc4ccc(I)cc4F)n(C)c(=O)c(C)c32)c1 [Trametinib] (partner 0.02 µM)
Outline: (§1)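 Nuclei were stained with Hoechst during a one-step fixation (final 0.05% Triton X-100, 1% formaldehyde, 1 ug/ml Hoechst) carried out 5 days after dosing, then counted on 4× images. The cells, lung cancer lines in 1536-well plates, had been dosed by pin tool the day after seeding with one drug alone or a fixed anchor-drug dose plus five library-drug doses (not always all listed) in √10 steps. Relative viability is the nuclei count in treated wells divided by that in vehicle wells, and each value is the median of duplicate plates.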

[2] = compound: CC(C)(C)c1nc(-c2cccc(NS(=O)(=O)c3c(F)cccc3F)c2F)c(-c2ccnc(N)n2)s1 [Dabrafenib] + Cc1nc(NC(=O)N2CCC[C@H]2C(N)=O)sc1-c1ccnc(C(C)(C)C(F)(F)F)c1 [Alpelisib] (partner 2 µM)
Outline: as §1

[3] = compound: CC(C)(C)c1nc(-c2cccc(NS(=O)(=O)c3c(F)cccc3F)c2F)c(-c2ccnc(N)n2)s1 [Dabrafenib] + N=C(N)NC(=N)NCCc1ccccc1 [Phenformin] (partner 250 µM)
Outline: as §1

[4] = compound: NC(=O)c1ccc(N(C(N)=O)c2c(F)cccc2F)nc1-c1ccc(F)cc1F [VX-702] + O=C(CCCCCCC(=O)Nc1ccccc1)NO [Vorinostat] (partner 1 µM)
Outline: as §1

Cell Line | relative viability ([1]; first compound 0.003 µM) | relative viability ([1]; first compound 0.009487 µM) | relative viability ([1]; first compound 0.03 µM) | relative viability ([1]; first compound 0.09487 µM) | relative viability ([1]; first compound 0.3 µM) | relative viability ([2]; first compound 0.003 µM) | relative viability ([2]; first compound 0.009487 µM) | relative viability ([2]; first compound 0.03 µM) | relative viability ([2]; first compound 0.09487 µM) | relative viability ([2]; first compound 0.3 µM) | relative viability ([3]; first compound 0.003 µM) | relative viability ([3]; first compound 0.009487 µM) | relative viability ([3]; first compound 0.03 µM) | relative viability ([3]; first compound 0.09487 µM) | relative viability ([3]; first compound 0.3 µM) | relative viability ([4]; first compound 0.02 µM) | relative viability ([4]; first compound 0.2 µM) | relative viability ([4]; first compound 0.6325 µM) | relative viability ([4]; first compound 2 µM)
UMC-11 | 0.773 | 0.759 | 0.495 | 0.755 | 0.848 | 1.08 | 1.01 | 1 | 0.937 | 0.935 | 0.289 | 0.331 | 0.332 | 0.329 | 0.279 | 0.339 | 0.293 | 0.353 | 0.376
PC-3 [JPC-3] |  | 0.812 | 0.751 | 0.893 | 0.863 | 1.01 | 0.996 | 1.02 | 0.907 | 0.956 | 0.405 | 0.491 | 0.465 | 0.441 | 0.476 | 0.929 | 0.773 | 0.908 | 0.886
NCI-H596 |  | 0.84 | 0.707 | 0.747 | 0.704 | 0.408 | 0.578 | 0.427 | 0.534 | 0.566 |  | 1.11 | 0.65 | 0.687 | 0.748 | 0.636 | 0.439 | 0.637 | 0.581
NCI-H441 |  | 0.53 | 0.54 | 0.681 | 0.829 |  | 0.915 | 0.817 | 0.677 | 0.692 |  | 1.04 | 1 | 0.548 | 0.563 | 0.876 | 0.616 | 0.637 | 0.76
LOU-NH91 |  | 0.774 | 0.792 | 0.782 | 0.837 |  | 0.803 | 0.652 | 0.7 | 0.743 | 0.417 | 0.808 | 0.645 | 0.707 | 0.92 | 0.957 | 0.845 | 0.895 | 0.857
IA-LM |  |  |  |  |  | 0.613 | 0.607 | 0.72 | 0.242 | 0.0678 |  |  |  |  |  | 0.937 | 0.936 | 0.853 | 0.878
EBC-1 |  |  |  |  |  | 0.71 | 0.649 | 0.563 | 0.264 | 0.24 |  |  |  |  |  |  |  |  | 
NCI-H727 | 0.355 | 0.353 |  | 0.417 | 0.354 |  | 0.757 | 0.519 | 0.647 | 0.638 |  | 0.425 | 0.515 |  | 0.595 | 1.25 | 1.28 | 1.18 | 1.39
NCI-H1395 |  | 1.18 | 0.988 | 0.889 | 0.984 |  | 0.914 | 0.894 | 0.944 | 0.878 | 0.325 | 0.462 | 0.447 | 0.403 | 0.437 | 0.701 | 0.686 | 0.683 | 0.884
NCI-H2126 | 0.468 | 0.532 | 0.475 | 0.6 | 0.619 | 0.706 | 0.78 | 0.74 | 0.796 | 0.777 | 0.521 | 0.551 | 0.557 | 0.601 | 0.565 | 0.76 | 0.741 | 0.754 | 0.632
LCLC-97TM1 |  | 0.225 | 0.193 | 0.21 | 0.205 |  | 0.228 | 0.303 |  | 0.258 | 0.339 | 0.398 | 0.415 | 0.328 | 0.259 | 0.732 | 0.787 | 0.782 | 0.878
NCI-H460 | 0.144 | 0.171 | 0.115 | 0.317 | 0.341 | 0.508 | 0.599 | 0.394 | 0.567 | 0.592 | 0.523 | 0.533 | 0.52 | 0.497 | 0.46 | 0.889 | 0.692 | 0.769 | 0.925
NCI-H1650 | 0.671 | 0.609 | 0.552 | 0.666 | 0.673 |  |  |  |  |  | 0.347 | 0.424 | 0.457 | 0.495 | 0.631 | 0.479 | 0.624 | 0.776 | 0.583
NCI-H522 |  | 0.829 | 0.753 | 0.682 | 0.792 |  |  |  |  |  |  | 0.654 | 0.616 | 0.628 | 0.634 | 1.06 | 0.899 | 1.03 | 1.11
Calu-6 |  |  |  |  |  | 0.964 | 0.896 | 0.92 | 0.723 | 0.593 |  |  |  |  |  |  |  |  | 
NCI-H2342 | 0.808 | 0.79 | 0.76 | 0.866 | 0.927 |  |  |  |  |  | 0.444 | 0.599 | 0.546 | 0.653 | 0.612 | 0.717 | 0.956 | 0.832 | 0.867
ABC-1 |  |  |  |  |  |  | 0.934 | 1.14 | 1.13 | 1.28 | 0.214 | 0.233 | 0.254 | 0.232 | 0.209 | 1.46 | 0.922 | 1.17 | 1.41
NCI-H1703 |  |  |  |  |  | 0.356 | 0.309 | 0.291 | 0.379 | 0.362 |  |  |  |  |  |  |  |  | 
NCI-H1792 |  | 0.484 | 0.405 | 0.439 | 0.474 |  | 0.698 | 0.646 | 0.598 | 0.663 |  | 0.485 | 0.198 | 0.34 | 0.202 |  |  |  | 
NCI-H1623 |  |  |  |  |  |  |  |  |  |  |  | 0.611 | 0.572 | 0.602 | 0.682 |  |  |  | 

— the supplement of paper PMC10307832
